Assay results as given in patent US5061794A, “Cephalosporin derivatives, and antibacterial agents” (priority 1986, dated 1991).
Where two headings read alike, the source gives them in different places.

What was measured:
P. vulgaris No. 33 = experiment: in vitro antibacterial activity, agar plate dilution method (MIC); format: cell-based; conditions: 10^6 CFU/ml; for MIC: Proteus vulgaris
In short: (§1)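 MIC in μg/ml, read after 16 h at 37° C. on Mueller Hinton agar carrying graded compound levels; inoculum 10^6 CFU/ml from overnight Mueller Hinton broth.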

K. pneumoniae No. 42 = experiment: as above; format: cell-based; conditions: 10^6 CFU/ml; for MIC: Klebsiella pneumoniae, NO.42, 16 h, read-out: Minimum Inhibitory Concentration (MIC), *K. pneumoniae No. 42, lactamase-producing strain
In short: as §1

E. cloacae 963 = experiment: as above; format: cell-based; conditions: 10^6 CFU/ml
In short: as §1

M. morganii GN5407 = experiment: as above; format: cell-based; conditions: 10^6 CFU/ml; for MIC: Morganella morganii, GN5407, 16 h, read-out: Minimum Inhibitory Concentration (MIC), *M. morganii GN5407, lactamase-producing strain
In short: as §1

K. pneumoniae PCI-602 = experiment: as above; format: cell-based; conditions: 10^6 CFU/ml; for MIC: Klebsiella pneumoniae, PCI602, 16 h, read-out: Minimum Inhibitory Concentration (MIC), K. pneumoniae PCI-602
In short: as §1

K. oxytoca GN10650 = experiment: as above; format: cell-based; conditions: 10^6 CFU/ml; for MIC: Klebsiella oxytoca, GN10650, 16 h, read-out: Minimum Inhibitory Concentration (MIC), *K. oxytoca GN10650, lactamase-producing strain
In short: as §1

P. vulgaris HX-19 = experiment: as above; format: cell-based; conditions: P. vulgaris HX-19, 10^6 CFU/ml; for MIC: Proteus vulgaris, HX19, 16 h, read-out: Minimum Inhibitory Concentration (MIC)
In short: as §1

S. marcescens IAM 1184 = experiment: as above; format: cell-based; conditions: for MIC: Serratia marcescens, IAM1184, 16 h, read-out: Minimum Inhibitory Concentration (MIC)
In short: as §1

E. coli GN5482 = experiment: as above; format: cell-based; conditions: for MIC: Escherichia coli, GN5482, 16 h
In short: as §1

S. aureus 209P NIHJ-JC1 = experiment: as above; format: cell-based; conditions: Staphylococcus aureus, 16 h, 10^6 CFU/ml, 37° C., 16 hours
In short: as §1

E. cloacae Nek 39 = experiment: as above; format: cell-based; conditions: 10^6 CFU/ml; for MIC: Enterobacter cloacae, NEK39, 16 h
In short: as §1

E. coli NIHJ JC2 = experiment: as above; format: cell-based; conditions: for MIC: Escherichia coli, NIHJJC2, 16 h, read-out: Minimum Inhibitory Concentration (MIC), E. coli NIHJ JC2, 10^6 CFU/ml, 37° C.
In short: as §1

S. marcescens No. 16-2 = experiment: as above; format: cell-based; conditions: 10^6 CFU/ml; for MIC: Serratia marcescens, NO.162, 16 h
In short: as §1

Ps. cepacia 23 = experiment: as above; format: cell-based, Pseudomonas cepacia; conditions: for MIC: read-out: Minimum Inhibitory Concentration (MIC)
In short: as §1

E. coli CSH(RE45) = experiment: microbe, parasite or virus in culture; format: cell-based; conditions: 10^6 CFU/ml; for MIC: Escherichia coli, 16 h, read-out: Minimum Inhibitory Concentration (MIC), *E. coli CSH(RE45), lactamase-producing strain
In short: as §1

E. coli CSH2 (RK1) = experiment: microbe, parasite or virus in culture; format: cell-based; conditions: 10^6 CFU/ml; for MIC: Escherichia coli, 16 h, read-out: Minimum Inhibitory Concentration (MIC), *E. coli CSH2 (RK1), lactamase-producing strain
In short: as §1

A. calcoaceticus No. 4 = experiment: in vitro antibacterial activity, agar plate dilution method (MIC); format: cell-based, Acinetobacter calcoaceticus; conditions: 10^6 CFU/ml; for MIC: Acinetobacter calcoaceticus, NO.4, 16 h
In short: as §1

Ps. aeruginosa AKR17 = experiment: as above; format: cell-based, Pseudomonas aeruginosa; conditions: Ps. aeruginosa AKR17, 10^6 CFU/ml; for MIC: Pseudomonas aeruginosa, 16 h, read-out: Minimum Inhibitory Concentration (MIC)
In short: as §1

Ps. aeruginosa IF03445 = experiment: as above; format: cell-based, Pseudomonas aeruginosa; conditions: 10^6 CFU/ml; for MIC: Pseudomonas aeruginosa
In short: as §1

Ps. aeruginosa AK 109 = experiment: as above; format: cell-based, Pseudomonas aeruginosa; conditions: 10^6 CFU/ml; for MIC: Pseudomonas aeruginosa, AK109, 16 h
In short: as §1

[1] = Enterobacter cloacae, 963, 16 h, read-out: Minimum Inhibitory Concentration (MIC), E. cloacae 963
[2] = read-out: Minimum Inhibitory Concentration (MIC), *E. coli GN5482, lactamase-producing strain, 10^6 CFU/ml
[3] = S. aureus 209P NIHJ-JC1, read-out: Minimum Inhibitory Concentration (MIC)
[4] = A. calcoaceticus No. 4, read-out: Minimum Inhibitory Concentration (MIC)
[5] = 16 h, Ps. aeruginosa IF03445, read-out: Minimum Inhibitory Concentration (MIC)
[6] = Ps. aeruginosa AK 109, read-out: Minimum Inhibitory Concentration (MIC)
[7] = Enterobacter cloacae, 16 h, E. cloacae 963, read-out: Minimum Inhibitory Concentration (MIC)
[8] = S. marcescens IAM 1184, 10^6 CFU/ml
[9] = NO.33, 16 h, read-out: Minimum Inhibitory Concentration (MIC), *P. vulgaris No. 33, lactamase-producing strain
[10] = read-out: Minimum Inhibitory Concentration (MIC), S. aureus 209P NIHJ-JC1
[11] = read-out: Minimum Inhibitory Concentration (MIC), *E. cloacae Nek 39, lactamase-producing strain
[12] = read-out: Minimum Inhibitory Concentration (MIC), *S. marcescens No. 16-2, lactamase-producing strain
[13] = Burkholderia cepacia, 16 h, Ps. cepacia 23, 10^6 CFU/ml

SMILES	MIC (K. pneumoniae No. 42) [µg/mL]	MIC (E. cloacae 963; [1]) [µg/mL]	MIC (M. morganii GN5407) [µg/mL]	MIC (K. pneumoniae PCI-602) [µg/mL]	MIC (K. oxytoca GN10650) [µg/mL]	MIC (P. vulgaris HX-19) [µg/mL]	MIC (E. coli GN5482; [2]) [µg/mL]	MIC (S. aureus 209P NIHJ-JC1; [3]) [µg/mL]	MIC (E. coli NIHJ JC2) [µg/mL]	MIC (E. coli CSH(RE45)) [µg/mL]	MIC (E. coli CSH2 (RK1)) [µg/mL]	MIC (A. calcoaceticus No. 4; [4]) [µg/mL]	MIC (Ps. aeruginosa AKR17) [µg/mL]	MIC (Ps. aeruginosa IF03445; [5]) [µg/mL]	MIC (Ps. aeruginosa AK 109; [6]) [µg/mL]	MIC (E. cloacae 963; [7]) [µg/mL]	MIC (P. vulgaris No. 33; [9]) [µg/mL]	MIC (S. marcescens IAM 1184; [8]) [µg/mL]	MIC (S. aureus 209P NIHJ-JC1; [10]) [µg/mL]	MIC (E. cloacae Nek 39; [11]) [µg/mL]	also measured
CC(=O)Oc1ccc(-c2nc(SCC3=C(C(=O)O)N4C(=O)[C@@H](NC(=O)/C(=N\OC(C)(C)C(=O)O)c5csc(N)n5)[C@H]4SC3)sc2CC(=O)O)cc1 [compound 20, trisodium 3-[4-(4-acetoxyphenyl)-5-carboxylatemethylthiazol-2-yl]thiomethyl-7β-[2-(2-aminothiazol-4-yl)-2-(1-carboxylate-1-methylethoxyimino)acetamido]-3-cephem-4-carboxylate, reference compound]	3.12	6.25	3.12	1.56	3.12	< 0.006	6.25	50	3.12	3.12	3.12	> 100	> 100	25	25	–	–	–	–	–	MIC (P. vulgaris No. 33; 16 h, *P. vulgaris No. 33, lactamase-producing strain, read-out: Minimum Inhibitory Concentration (MIC)): 0.1 µg/mL; MIC (S. marcescens IAM 1184): 1.56 µg/mL; MIC (E. cloacae Nek 39; *E. cloacae Nek 39, lactamase-producing strain, read-out: Minimum Inhibitory Concentration (MIC)): 25 µg/mL; MIC (S. marcescens No. 16-2; *S. marcescens No. 16-2, lactamase-producing strain, read-out: Minimum Inhibitory Concentration (MIC)): 100 µg/mL; MIC (Ps. cepacia 23; Burkholderia cepacia, 23, 16 h): 6.25 µg/mL
Nc1nc(/C(=N/OC(C(=O)O)c2ccccc2)C(=O)N[C@@H]2C(=O)N3C(C(=O)O)=C(CSc4nnc(-c5ccc(O)c(O)c5)o4)CS[C@H]23)cs1 (single isomer, unassigned) [Example 24 DB, disodium 78-[2-(2-aminothiazol-4-yl)-2-(α-carboxylatebenzyloxyimino)acetamido]-3-[5-(3,4-dihydroxyphenyl)-1,3,4-oxadiazol-2-yl]-thiomethyl-3-cephem-4-carboxylate]	–	–	–	–	–	–	–	25	–	–	–	–	–	–	–	0.1	–	–	–	–	Minimum Inhibitory Concentration (MIC) (P. vulgaris No. 33; *P. vulgaris No. 33, lactamase-producing strain): 0.1 µg/mL; Minimum Inhibitory Concentration (MIC) (K. pneumoniae No. 42; *K. pneumoniae No. 42, lactamase-producing strain): 0.025 µg/mL; Minimum Inhibitory Concentration (MIC) (M. morganii GN5407; *M. morganii GN5407, lactamase-producing strain): 0.2 µg/mL; Minimum Inhibitory Concentration (MIC) (K. pneumoniae PCI-602; K. pneumoniae PCI-602): < 0.006 µg/mL; Minimum Inhibitory Concentration (MIC) (K. oxytoca GN10650; *K. oxytoca GN10650, lactamase-producing strain): 0.025 µg/mL; Minimum Inhibitory Concentration (MIC) (P. vulgaris HX-19): 0.05 µg/mL; Minimum Inhibitory Concentration (MIC) (S. marcescens IAM 1184; [8]): 0.05 µg/mL; Minimum Inhibitory Concentration (MIC) (E. coli GN5482; *E. coli GN5482, lactamase-producing strain, 10^6 CFU/ml): 0.39 µg/mL; Minimum Inhibitory Concentration (MIC) (E. cloacae Nek 39; *E. cloacae Nek 39, lactamase-producing strain): 0.05 µg/mL; Minimum Inhibitory Concentration (MIC) (E. coli NIHJ JC2; E. coli NIHJ JC2, 10^6 CFU/ml, 37° C., 16 hours): 0.39 µg/mL; Minimum Inhibitory Concentration (MIC) (S. marcescens No. 16-2; *S. marcescens No. 16-2, lactamase-producing strain): 0.78 µg/mL; Minimum Inhibitory Concentration (MIC) (Ps. cepacia 23; Ps. cepacia 23, 10^6 CFU/ml): < 0.006 µg/mL; Minimum Inhibitory Concentration (MIC) (E. coli CSH(RE45); *E. coli CSH(RE45), lactamase-producing strain): 0.0125 µg/mL; Minimum Inhibitory Concentration (MIC) (E. coli CSH2 (RK1); *E. coli CSH2 (RK1), lactamase-producing strain): 0.0125 µg/mL; Minimum Inhibitory Concentration (MIC) (A. calcoaceticus No. 4; A. calcoaceticus No. 4): 0.05 µg/mL; Minimum Inhibitory Concentration (MIC) (Ps. aeruginosa AKR17): 0.78 µg/mL; Minimum Inhibitory Concentration (MIC) (Ps. aeruginosa IF03445; Ps. aeruginosa IF03445): 1.56 µg/mL; Minimum Inhibitory Concentration (MIC) (Ps. aeruginosa AK 109; Ps. aeruginosa AK 109): 0.2 µg/mL
CO/N=C(\C(=O)N[C@@H]1C(=O)N2C(C(=O)O)=C(CSc3nnc(-c4ccc(O)c(O)c4)s3)CS[C@H]12)c1csc(N)n1 [Ex. 25, sodium 7β-[2-(2-aminothiazol-4-yl)-2-methoxviminoacetamido]-3-[5-(3,4-dihydroxyphenyl)-1,3,4-thiadiazol-2-yl]thiomethyl-3-cephem-4-carboxylate]	0.0125	0.025	0.025	< 0.006	0.78	< 0.006	0.78	–	0.2	0.025	< 0.006	0.2	100	–	–	–	0.025	0.0125	0.78	0.39	MIC (S. marcescens No. 16-2; [12]): 1.56 µg/mL; MIC (Ps. cepacia 23; [13]): < 0.006 µg/mL; MIC (Ps. aeruginosa IF03445; IF03445, 16 h, read-out: Minimum Inhibitory Concentration (MIC), Ps. aeruginosa IF03445): 0.78 µg/mL; MIC (Ps. aeruginosa AK 109; read-out: Minimum Inhibitory Concentration (MIC), Ps. aeruginosa AK 109): 0.78 µg/mL
C=CCO/N=C(\C(=O)N[C@@H]1C(=O)N2C(C(=O)O)=C(CSc3nnc(-c4ccc(O)c(O)c4)o3)CS[C@H]12)c1csc(N)n1 [Ex. 8, sodium 7β-[2-allyloxyimino-2-(2-aminothiazol-4-yl)acetamido]-3-[5-(3,4-dihydroxyphenyl)-1,3,4-oxadiazol-2-yl]thiomethyl-3-cephem-4carboxylate]	0.05	–	0.0125	< 0.006	3.12	< 0.006	–	–	0.1	0.78	< 0.006	–	100	0.2	0.2	< 0.006	0.0125	0.0125	0.78	0.05	MIC (E. coli GN5482; read-out: Minimum Inhibitory Concentration (MIC)): 0.39 µg/mL; MIC (S. marcescens No. 16-2; [12]): 1.56 µg/mL; MIC (Ps. cepacia 23; [13]): 0.025 µg/mL; MIC (A. calcoaceticus No. 4; read-out: Minimum Inhibitory Concentration (MIC), A. calcoaceticus No. 4): 0.1 µg/mL
